Reference: patent US10597388B2, “Pyridazinone herbicides” (FMC CORPORATION, priority 2014, dated 2020)
Read-outs that look alike come from different tables or passages of the source.

Experiments:
Format in all cases: in vivo
[1] = system: crabgrass, large (large crabgrass, Digitaria sanguinalis); assay: Test A greenhouse herbicide test, pre- and postemergence; conditions: Digitaria sanguinalis, 240 h; for pest or weed control at 125 g/ha: 125 g ai/ha; for pest or weed control at 500 g/ha: 500 g ai/ha, 0 to 100 scale
Outline: (§1)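 Seeds sown in loam–sand blend got a preemergence directed soil spray of compound in non-phytotoxic solvent with surfactant. Postemergence treatment was given at 2–10 cm, one- to two-leaf stage. After ~10 d in greenhouse, injury was rated visually vs untreated controls, 0 (no effect) to 100 (complete control).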

[2] = system: momingglory (Ipomoea spp.); assay: as above; conditions: Ipomoea, 240 h; for pest or weed control at 125 g/ha: 125 g ai/ha; for pest or weed control at 500 g/ha: 500 g ai/ha, 0 to 100 scale
Outline: as §1

[3] = system: velvetleaf (Abutilon theophrasti); assay: as above; conditions: Abutilon theophrasti, 240 h; for pest or weed control at 125 g/ha: 125 g ai/ha; for pest or weed control at 500 g/ha: 500 g ai/ha, 0 to 100 scale
Outline: as §1

[4] = system: arrowleaf sida (Sida rhombifolia); assay: Test E greenhouse herbicide test, pre- and postemergence
Outline: (§2)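 Pre- and postemergence sprays, same solvent–surfactant formulation. Substrate: silt loam (pre), peat-based mix (post, 1–4 leaf, 2–18 cm). Readout: visual control rating 0–100 against controls at 14–21 d.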

[5] = system: field bindweed (Convolvulus arvensis); assay: as above
Outline: as §2

[6] = system: goosegrass (Eleusine indica); assay: as above; conditions: Preemergence
Outline: as §2

[7] = system: waterhemp (common waterhemp, Amaranthus rudis); assay: as above
Outline: as §2

[8] = system: wild poinsettia (Euphorbia heterophylla); assay: as above
Outline: as §2

[9] = post-emergence, Postemergence, visual rating after approx. 10 d, 0 to 100 scale (0 no effect, 100 complete control), read-out: Plant response rating, Crabgrass, Large
[10] = post-emergence, Postemergence, 0 is no effect, 100 is complete control, read-out: Crabgrass, Large plant response rating
[11] = pre-emergence, Preemergence, 0 to 100 scale where 0 is no effect and 100 is complete control, read-out: Crabgrass, Large plant response rating
[12] = pre-emergence, Preemergence, 0 no effect, 100 complete control, read-out: Plant response rating, Crabgrass, Large
[13] = post-emergence, Postemergence, visual rating after approx. 10 d, 0 to 100 scale (0 no effect, 100 complete control), read-out: Plant response rating, Morningglory
[14] = post-emergence, Postemergence, 0 is no effect, 100 is complete control, read-out: Morningglory plant response rating
[15] = pre-emergence, Preemergence, 0 to 100 scale where 0 is no effect and 100 is complete control, read-out: Morningglory plant response rating
[16] = pre-emergence, Preemergence, 0 no effect, 100 complete control, read-out: Plant response rating, Morningglory
[17] = post-emergence, Postemergence, visual rating after approx. 10 d, 0 to 100 scale (0 no effect, 100 complete control), read-out: Plant response rating, Velvetleaf
[18] = post-emergence, Postemergence, 0 is no effect, 100 is complete control, read-out: Velvetleaf plant response rating
[19] = pre-emergence, Preemergence, 0 to 100 scale where 0 is no effect and 100 is complete control, read-out: Velvetleaf plant response rating
[20] = pre-emergence, Preemergence, 0 no effect, 100 complete control, read-out: Plant response rating, Velvetleaf
[21] = 62 g ai/ha, Postemergence, scale 0 to 100 (0 no effect, 100 complete control)
[22] = 62 g ai/ha, Preemergence, scale 0 to 100 (0 no effect, 100 complete control)
[23] = 125 g ai/ha, Postemergence, scale 0 to 100 (0 no effect, 100 complete control)
[24] = 250 g ai/ha, Postemergence, scale 0 to 100 (0 no effect, 100 complete control)
[25] = Postemergence, 16 g ai/ha, visual, scale 0 no effect to 100 complete control
[26] = Postemergence, 31 g ai/ha, visual, scale 0 no effect to 100 complete control
[27] = Preemergence, 16 g ai/ha, scale 0 to 100, 0 no effect, 100 complete control
[28] = Preemergence, 31 g ai/ha, scale 0 to 100, 0 no effect, 100 complete control
[29] = Preemergence, 125 g ai/ha, visual, scale 0 no effect to 100 complete control
[30] = Preemergence, 250 g ai/ha, visual, scale 0 no effect to 100 complete control
[31] = 125 g ai/ha, Preemergence, scale 0 to 100 (0 no effect, 100 complete control)

SMILES: Cc1nn(C)c(=O)c(-c2c(C)oc3cccc(C)c23)c1O [Compound 8, 4-(2,4-dimethyl-3-benzofuranyl)-5-hydroxy-2,6-dimethyl-3(2H)-pyridazinone]
- pest or weed control at 125 g/ha [1, 9]: 0%
- pest or weed control at 500 g/ha [1, 10]: 30%
- pest or weed control at 125 g/ha [1, 11]: 10%
- pest or weed control at 500 g/ha [1, 12]: 60%
- pest or weed control at 125 g/ha [2, 13]: 0%
- pest or weed control at 500 g/ha [2, 14]: 10%
- pest or weed control at 125 g/ha [2, 15]: 0%
- pest or weed control at 500 g/ha [2, 16]: 0%
- pest or weed control at 125 g/ha [3, 17]: 60%
- pest or weed control at 500 g/ha [3, 18]: 60%
- pest or weed control at 125 g/ha [3, 19]: 0%
- pest or weed control at 500 g/ha [3, 20]: 30%

SMILES: Cc1cc(C)c2sc(C)c(-c3c(O)c(C)nn(C)c3=O)c2c1 [Compound 2, 5-hydroxy-2,6-dimethyl-4-(2,5,7-trimethylbenzo[b]thien-3-yl)-3(2H)-pyridazinone]
- pest or weed control at 125 g/ha [1, 9]: 50%
- pest or weed control at 500 g/ha [1, 10]: 70%
- pest or weed control at 125 g/ha [1, 11]: 90%
- pest or weed control at 500 g/ha [1, 12]: 100%
- pest or weed control at 125 g/ha [2, 13]: 100%
- pest or weed control at 500 g/ha [2, 14]: 100%
- pest or weed control at 125 g/ha [2, 15]: 80%
- pest or weed control at 500 g/ha [2, 16]: 100%
- pest or weed control at 125 g/ha [3, 17]: 100%
- pest or weed control at 500 g/ha [3, 18]: 100%
- pest or weed control at 125 g/ha [3, 19]: 80%
- pest or weed control at 500 g/ha [3, 20]: 90%
- Plant response rating, Arrowleaf Sida [4, 21]: 30
- Plant response rating, Arrowleaf Sida [4, 22]: 0
- Plant response rating, Arrowleaf Sida [4, 23]: 35
- Plant response rating, Arrowleaf Sida [4, 24]: 40
- Plant response rating, Arrowleaf Sida [4, 25]: 0
- Plant response rating, Arrowleaf Sida [4, 26]: 25
- Plant response rating, Arrowleaf Sida [4, 27]: 0
- Plant response rating, Arrowleaf Sida [4, 28]: 0
- Plant response rating, Arrowleaf Sida [4, 29]: 0
- Plant response rating, Arrowleaf Sida [4, 30]: 5
- Plant response rating, Field Bindweed [5, 21]: 65
- Plant response rating, Field Bindweed [5, 22]: 15
- Plant response rating, Field Bindweed [5, 23]: 75
- Plant response rating, Field Bindweed [5, 24]: 80
- Plant response rating, Field Bindweed [5, 25]: 60
- Plant response rating, Field Bindweed [5, 26]: 60
- Plant response rating, Field Bindweed [5, 27]: 0
- Plant response rating, Field Bindweed [5, 28]: 0
- Plant response rating, Field Bindweed [5, 29]: 35
- Plant response rating, Field Bindweed [5, 30]: 70
- Plant response rating, Goosegrass ([6]; 62 g ai/ha, scale 0 to 100 (0 no effect, 100 complete control)): 5
- Plant response rating, Goosegrass ([6]; 16 g ai/ha, scale 0 to 100, 0 no effect, 100 complete control): 0
- Plant response rating, Goosegrass ([6]; 31 g ai/ha, scale 0 to 100, 0 no effect, 100 complete control): 0
- Plant response rating, Goosegrass ([6]; 125 g ai/ha, visual, scale 0 no effect to 100 complete control): 25
- Plant response rating, Goosegrass ([6]; 250 g ai/ha, visual, scale 0 no effect to 100 complete control): 25
- Plant response rating, Waterhemp [7, 21]: 75
- Plant response rating, Waterhemp [7, 22]: 80
- Plant response rating, Waterhemp [7, 23]: 75
- Plant response rating, Waterhemp [7, 31]: 85
- Plant response rating, Waterhemp [7, 24]: 90
- Plant response rating, Waterhemp [7, 25]: 70
- Plant response rating, Waterhemp [7, 26]: 70
- Plant response rating, Waterhemp [7, 27]: 65
- Plant response rating, Waterhemp [7, 28]: 65
- Plant response rating, Waterhemp [7, 30]: 98
- Plant response rating, Poinsettia, Wild [8, 21]: 0
- Plant response rating, Poinsettia, Wild [8, 22]: 30
- Plant response rating, Poinsettia, Wild [8, 23]: 15
- Plant response rating, Poinsettia, Wild [8, 31]: 30
- Plant response rating, Poinsettia, Wild [8, 24]: 15
- Plant response rating, Poinsettia, Wild [8, 25]: 0
- Plant response rating, Poinsettia, Wild [8, 26]: 0
- Plant response rating, Poinsettia, Wild [8, 27]: 0
- Plant response rating, Poinsettia, Wild [8, 28]: 25
- Plant response rating, Poinsettia, Wild [8, 30]: 50
